Like-named read-outs stand apart in the source and are kept apart here.
Tests used:
KRAS G12D [1] = biological target: KRAS G12D (Homo sapiens, UniProt P01116, G12D); test: KRAS G12D TR-FRET Assay; settings: His-tagged KRAS G12D, biotinylated KRPep-2d, read-out: KRAS G12D Binding IC50
Method: The plate was incubated for 30 minutes at room temperature. Biotinylated KRPep-2d substrate (Amgen) was diluted to 20 nM in Assay Buffer and 2 uL was added to all wells and incubated for 1 hour at room temperature. Detection Reagent (0.4 nM LANCE Eu-W1024 Anti-6×His (Perkin Elmer AD0401), 5 nM streptavidin-d2 (Cisbio 610SADLA)) was prepared in Assay Buffer, then 4 μL was added to the plate and incubated for 1 hour at room temperature.

KRAS G12D [2] = biological target: KRAS G12D (Homo sapiens, UniProt P01116, C118A/G12D); test: KRAS G12D Coupled Nucleotide Exchange Assay; type: biochemical; settings: GDP-bound KRAS G12D/C118A, 2 hours pre-incubation, SOS-mediated nucleotide exchange, AlphaScreen
KRAS G12D (Homo sapiens, UniProt P01116, C118A/G12D), sequence (P01116 1-169 isoform P01116-2 G12D/C118A): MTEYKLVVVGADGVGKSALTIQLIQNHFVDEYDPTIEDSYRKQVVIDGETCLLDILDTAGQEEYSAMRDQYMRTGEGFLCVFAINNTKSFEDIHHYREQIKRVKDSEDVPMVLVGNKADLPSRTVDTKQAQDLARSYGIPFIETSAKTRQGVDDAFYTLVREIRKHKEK
Method: The assay plates were then read on a PerkinElmer EnVision Multilabel Reader, using AlphaScreen® technology, and data were analyzed using a 4-parameter logistic model to calculate IC50 values.

p-ERK (AsPC-1 cells) = test: Phospho-ERK1/2 MSD Assay; type: cell-based
Method: Sixteen hours prior to compound treatment, AsPC-1 cells were seeded in 96-well cell culture plates at a density of 25,000 cells/well and incubated at 37° C., 5% CO2. A compound dose-response titration was diluted in growth media, added to appropriate wells of a cell culture plate, and then incubated at 37° C., 5% CO2 for 2 hours. […] Phosphorylation of ERK1/2 in compound-treated lysates was assayed using Phospho-ERK1/2 Whole Cell Lysate kits (Meso Scale Discovery K151DWD) according to the manufacturer's protocol. Assay plates were read on a Meso Scale Discovery Sector Imager 6000, and data were analyzed using a 4-parameter logistic model to calculate IC50 values.

[3] = Homo sapiens, ASPC1, 2 h, read-out: 2 h p-ERK (AsPC-1 cells), IC50 (μM), AsPC-1 cells, 2 hours compound treatment
[4] = read-out: 2 h p-ERK (AsPC-1 cells), IC50, AsPC-1 cells, 2 hours compound treatment

KRAS G12D (Homo sapiens, UniProt P01116, G12D), sequence (P01116 1-188 isoform P01116-2 G12D): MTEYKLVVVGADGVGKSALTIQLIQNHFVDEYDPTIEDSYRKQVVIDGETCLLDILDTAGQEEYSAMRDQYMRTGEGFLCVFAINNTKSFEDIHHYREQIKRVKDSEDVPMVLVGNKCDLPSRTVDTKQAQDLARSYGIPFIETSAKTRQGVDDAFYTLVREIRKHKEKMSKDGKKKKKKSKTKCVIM

IC50 (KRAS G12D [1]) | IC50 (KRAS G12D [2]) | IC50 (p-ERK (AsPC-1 cells); [3]) | IC50 (p-ERK (AsPC-1 cells); [4]) | SMILES
0.006 µM | 0.003 µM | 0.019 µM | – | CCc1c(F)ccc2cc(O)cc(-c3ncc4c(N5CCCC6(CCO6)C5)nc(OC[C@@H]5C[C@@H](F)CN5C)nc4c3F)c12 (single isomer, unassigned) [Example 60]
0.01 µM | 0.004 µM | 0.007 µM | – | CCc1c(F)ccc2cc(O)cc(-c3ncc4c(N5CCCC6(CCO6)C5)nc(OC[C@@]56CCCN5C[C@H](F)C6)nc4c3C)c12 (single isomer, unassigned) [Example 61]
0.004 µM | 0.002 µM | 0.026 µM | – | CCc1c(F)ccc2cccc(-c3ncc4c(N5CCCC6(CNC(=O)O6)C5)nc(OC[C@@]56CCCN5C[C@H](F)C6)nc4c3F)c12 (single isomer, unassigned) [Example 63]
0.003 µM | 0.001 µM | 0.03 µM | – | CCc1c(F)ccc2cc(O)cc(-c3ncc4c(N5CCCC6(CCC(=O)O6)C5)nc(OC[C@@]56CCCN5C[C@H](F)C6)nc4c3F)c12 (single isomer, unassigned) [Example 66]
0.004 µM | 0.002 µM | – | 0.06 µM | CCc1c(F)ccc2cc(O)cc(-c3ncc4c(N5CCCC6(COC(=O)O6)C5)nc(OC[C@@]56CCCN5C[C@H](F)C6)nc4c3F)c12 (single isomer, unassigned) [Example 67]
0.023 µM | 0.011 µM | – | 1.58 µM | CCc1c(F)ccc2cc(O)cc(-c3ncc4c(N5CCCC6(COC(=O)O6)C5)nc(OC[C@@]56CCCN5C[C@H](F)C6)nc4c3F)c12 (single isomer, unassigned) [Example 68]
0.003 µM | 0.004 µM | 0.329 µM | – | CCc1c(F)ccc2cc(O)cc(-c3ncc4c(N5CC(O)CC6(CCC6)C5)nc(OC[C@@]56CCCN5C[C@H](F)C6)nc4c3F)c12 (stereo partly drawn) [Example 1, 6-(7-(8-Ethyl-7-fluoro-3-hydroxynaphthalen-1-yl)-8-fluoro-2-(((2R,7aS)-2-fluorotetrahydro-1H-pyrrolizin-7a(5H)-yl)methoxy)pyrido[4,3-d]pyrimidin-4-yl)-6-azaspiro[3.5]nonan-8-ol]
0.008 µM | 0.004 µM | 0.523 µM | – | CCc1c(F)ccc2cc(O)cc(-c3ncc4c(N5CCOC6(CC6)C5)nc(OC[C@@]56CCCN5C[C@H](F)C6)nc4c3F)c12 [Example 2, 5-Ethyl-6-fluoro-4-(8-fluoro-2-(((2R,7aS)-2-fluorotetrahydro-1H-pyrrolizin-7a(5H)-yl)methoxy)-4-(4-oxa-7-azaspiro[2.5]octan-7-yl)pyrido[4,3-d]pyrimidin-7-yl)naphthalen-2-ol]
0.008 µM | 0.01 µM | 2.4 µM | – | CCc1c(F)ccc2cc(O)cc(-c3ncc4c(N5CCCC6(CC(=O)N6C)C5)nc(OC[C@@]56CCCN5C[C@H](F)C6)nc4c3F)c12 (stereo partly drawn) [Example 6, 6-(7-(8-Ethyl-7-fluoro-3-hydroxynaphthalen-1-yl)-8-fluoro-2-(((2R,7aS)-2-fluorotetrahydro-1H-pyrrolizin-7a(5H)-yl)methoxy)pyrido[4,3-d]pyrimidin-4-yl)-1-methyl-1,6-diazaspiro[3.5]nonan-2-one]
0.005 µM | 0.006 µM | 0.341 µM | – | CCc1c(F)ccc2cc(O)cc(-c3ncc4c(N5CC(C)(O)CC6(CC6)C5)nc(OC[C@@]56CCCN5C[C@H](F)C6)nc4c3F)c12 (stereo partly drawn) [Example 19, 5-(7-(8-Ethyl-7-fluoro-3-hydroxynaphthalen-1-yl)-8-fluoro-2-(((2R,7aS)-2-fluorotetrahydro-1H-pyrrolizin-7a(5H)-yl)methoxy)pyrido[4,3-d]pyrimidin-4-yl)-7-methyl-5-azaspiro[2.5]octan-7-ol]
0.001 µM | 0.002 µM | 0.066 µM | – | Oc1cc(Cl)c(C2CC2)c(-c2ncc3c(N4CCCC5(CCO5)C4)nc(OC[C@@]45CCCN4C[C@H](F)C5)nc3c2F)c1 (stereo partly drawn) [Example 26, 3-Chloro-4-cyclopropyl-5-(8-fluoro-2-(((2R,7aS)-2-fluorotetrahydro-1H-pyrrolizin-7a(5H)-yl)methoxy)-4-(1-oxa-6-azaspiro[3.5]nonan-6-yl)pyrido[4,3-d]pyrimidin-7-yl)phenol]
0.004 µM | 0.006 µM | 0.137 µM | – | CCc1c(F)ccc2cc(O)cc(-c3ncc4c(N5CCCC6(CCCO6)C5)nc(OC[C@@]56CCCN5C[C@H](F)C6)nc4c3F)c12 (stereo partly drawn) [Example 27, 5-Ethyl-6-fluoro-4-(8-fluoro-2-(((2R,7aS)-2-fluorotetrahydro-1H-pyrrolizin-7a(5H)-yl)methoxy)-4-(1-oxa-7-azaspiro[4.5]decan-7-yl)pyrido[4,3-d]pyrimidin-7-yl) naphthalen-2-ol]
0.003 µM | 0.005 µM | 0.923 µM | – | CCc1c(F)ccc2cc(O)cc(-c3ncc4c(N5CCCC6(CCC(=O)N6)C5)nc(OC[C@@]56CCCN5C[C@H](F)C6)nc4c3F)c12 (stereo partly drawn) [Example 28, 7-(7-(8-Ethyl-7-fluoro-3-hydroxynaphthalen-1-yl)-8-fluoro-2-(((2R,7aS)-2-fluorotetrahydro-1H-pyrrolizin-7a(5H)-yl)methoxy)pyrido[4,3-d]pyrimidin-4-yl)-1,7-diazaspiro[4.5]decan-2-one]
0.01 µM | 0.009 µM | 2.04 µM | – | C#Cc1c(F)ccc2cccc(-c3ncc4c(N5CCCC6(CNC(=O)C6)C5)nc(OC[C@@]56CCCN5C[C@H](F)C6)nc4c3F)c12 (stereo partly drawn) [Example 29, 7-(7-(8-Ethynyl-7-fluoronaphthalen-1-yl)-8-fluoro-2-(((2R,7aS)-2-fluorotetrahydro-1H-pyrrolizin-7a(5H)-yl)methoxy)pyrido[4,3-d]pyrimidin-4-yl)-2,7-diazaspiro[4.5]decan-3-one]
0.019 µM | 0.016 µM | 1.98 µM | – | CCc1c(F)ccc2cccc(-c3ncc4c(N5CCCC6(CNC(=O)C6)C5)nc(OC[C@@]56CCCN5C[C@H](F)C6)nc4c3F)c12 (stereo partly drawn) [Example 30, 7-(7-(8-Ethyl-7-fluoronaphthalen-1-yl)-8-fluoro-2-(((2R,7aS)-2-fluorotetrahydro-1H-pyrrolizin-7a(5H)-yl)methoxy)pyrido[4,3-d]pyrimidin-4-yl)-2,7-diazaspiro[4.5]decan-3-one]
0.008 µM | 0.012 µM | 0.452 µM | – | CCc1c(F)ccc2cc(O)cc(-c3ncc4c(N5CCCC6(CCOC6)C5)nc(OC[C@@]56CCCN5C[C@H](F)C6)nc4c3F)c12 (stereo partly drawn) [Example 33, 5-Ethyl-6-fluoro-4-(8-fluoro-2-(((2R,7aS)-2-fluorotetrahydro-1H-pyrrolizin-7a(5H)-yl)methoxy)-4-(2-oxa-7-azaspiro[4.5]decan-7-yl)pyrido[4,3-d]pyrimidin-7-yl)naphthalen-2-ol]
0.085 µM | 0.038 µM | 2.53 µM | – | CCc1c(F)ccc2cc(O)cc(-c3ncc4c(N5CCC6(CC(O)C6)C5)nc(OC[C@@]56CCCN5C[C@H](F)C6)nc4c3F)c12 (stereo partly drawn) [Example 37, 6-(7-(8-Ethyl-7-fluoro-3-hydroxynaphthalen-1-yl)-8-fluoro-2-(((2R,7aS)-2-fluorotetrahydro-1H-pyrrolizin-7a(5H)-yl)methoxy)pyrido[4,3-d]pyrimidin-4-yl)-6-azaspiro[3.4]octan-2-ol]
